Reference: paper PMC10449621, “Engineering cellular communication between light-activated synthetic cells and bacteria” (Nature Chemical Biology, 2023)
Where “and” joins values, the source holds several entries; their conditions need not be identical. Equal values may be shown once. Entries after “also recorded” stand apart in the source; their conditions may differ.

What was measured:
[1] = system: BjaRWT (B0034|ATG) receiver cells (pSB1A3–bjaR–gfp); assay: BjaR receiver cell AHSL dose-response (gfp reporter, plate reader); assay type: cell-based, E. coli XL10-Gold
Text: (§1) Next, we set out to establish a unidirectional communication pathway by reconstituting the BjaI and BjaR QS machinery, separately, within synthetic cells and E. coli, respectively. As a starting point, IV-HSL-responsive receiver cells were created by transforming E. coli XL10-Gold cells with a reporter plasmid, pSB1A3–bjaR–gfp[28]. This plasmid contained a bjaR gene under the control of a constitutively active J23100 promoter and a gfp gene under the control of a pBjaR promoter. The pBjaR promoter was formed by substituting the lux-box of the pLux promoter with the BjaR-binding site (Supplementary Fig. 10). […] Although this reporter plasmid had been characterized previously, gfp expression was initiated with C4-HSL rather than the cognate ligand, IV-HSL. Thus, we first evaluated the dose–response relationship between synthetic IV-HSL (synthesis described in Methods) and GFP production by BjaR receiver cells. The cells were grown in M9 minimal media to an optical density at 600 nm (OD600) = 0.05, then transferred to a 96-well plate containing IV-HSL and incubated at 37 °C, 800 r.p.m., for 4 h. […] To elucidate the root cause of the high background fluorescence, a BjaRKO variant of the reporter plasmid was constructed. […] Therefore, the high OFF-state was attributed to BjaR-mediated transcription activation in the absence of IV-HSL, rather than host transcription factors recognizing the pBjaR promoter, or transcription factor independent gfp expression.
(§2) The BjaR reporter plasmids were retransformed into E. coli XL10-Gold cells for each experiment. A single colony was used to inoculate 5 ml LB + Amp media and incubated at 37 °C, 225 r.p.m. overnight. Overnight cultures were diluted 1/250 or 1/500 in 5 ml M9 minimal media + Amp and incubated at 37 °C, 225 r.p.m. for 3 h and 45 min (until OD600 = ~0.075). Cultures were diluted down to OD600 = 0.05 with M9 minimal media + Amp, and 200 µl was added to wells of a 96-well plate containing 1 µl IV-HSL dissolved in DMSO or 1 µl BjaI CFPS reactions (IV-HSL concentrations obtained from serial dilution from 63.2 µM to 632 pM; final DMSO concentration = 0.5%). Cells were incubated at 37 °C, 800 r.p.m., in a thermomixer with a heated lid for 4 h. Fluorescence and OD600 were measured in a Tecan M1000 infinite plate reader (excitation, 488 nm; emission, 510 nm; bandwidth, 5 nm; gain, 101 and z position, 21,311 µm). The dose–response curves were fitted to the function indicated by Eq. (1), where a = maximal fluorescence output, b = basal fluorescence output, X = concentration of AHSL, GFP = fluorescence at the given condition, EC50 = AHSL at 50% maximal fluorescence output and h = hill coefficient. EC50 and h were derived using the nonlinear regression model based on Eq. (1), in MATLAB. A summary of the dose–response data is available in Supplementary Table 1.1 GFP=b+a−b/1+10^logEC50−X×h

[2] = system: BjaRKO receiver cells (pSB1A3–bjaRKO–gfp); assay: as above; assay type: cell-based, E. coli XL10-Gold
Text: as §1, §2

CC(C)CC(=O)N[C@H]1CCOC1=O [IV-HSL, N-isovaleryl-L-homoserine lactone]
IV-HSL concentration at which gfp expression saturated ([1]; 4 h, 37 °C): ~ 100 nM | lowest IV-HSL concentration giving increased gfp expression ([1]; 4 h, 37 °C): 100 pM | EC50 ([1]; Escherichia coli, IV-HSL-activated gfp expression, M9 minimal media, 37 °C, 4 h): 1 ± 0.11 nM | GFP ([1]; Log([ASHL]) -6.5): 5520 and 5263 and 4853 | Mean normalised fluorescence ([1]; Log([ASHL]) -6.5): 51540.5 | Normalised fluorescence ([1]; Log([ASHL]) -6.5): 52896 and 49381.5 and 52343.9 | GFP ([1]; Log([ASHL]) -7): 4847 and 5318 and 4599 | Mean normalised fluorescence ([1]; Log([ASHL]) -7): 48761.2 | Normalised fluorescence ([1]; Log([ASHL]) -7): 46176.2 and 48745.4 and 51362.1 | GFP ([1]; Log([ASHL]) -7.5): 4806 and 4967 and 4256 | Mean normalised fluorescence ([1]; Log([ASHL]) -7.5): 50366.9 | Normalised fluorescence ([1]; Log([ASHL]) -7.5): 49622.2 and 48407.5 and 53071.1 | GFP ([1]; Log([ASHL]) -8): 4739 and 4412 and 4755 | Mean normalised fluorescence ([1]; Log([ASHL]) -8): 51222.6 | Normalised fluorescence ([1]; Log([ASHL]) -8): 48553.6 and 53423.6 and 51690.6 | GFP ([1]; Log([ASHL]) -8.5): 4235 and 3971 and 4223 | Mean normalised fluorescence ([1]; Log([ASHL]) -8.5): 46308.3 | Normalised fluorescence ([1]; Log([ASHL]) -8.5): 43174.3 and 50090 and 45660.8 | GFP ([1]; Log([ASHL]) -9): 3046 and 2749 and 2957 | Mean normalised fluorescence ([1]; Log([ASHL]) -9): 32989.1 | Normalised fluorescence ([1]; Log([ASHL]) -9): 31098.3 and 35762 and 32107 | GFP ([1]; Log([ASHL]) -9.5): 2089 and 1773 and 1816 | Mean normalised fluorescence ([1]; Log([ASHL]) -9.5): 20544.4 | Normalised fluorescence ([1]; Log([ASHL]) -9.5): 19459.5 and 23021.7 and 19152 | GFP ([1]; Log([ASHL]) -10): 1495 and 1301 and 1477 | Mean normalised fluorescence ([1]; Log([ASHL]) -10): 15546.1 | Normalised fluorescence ([1]; Log([ASHL]) -10): 14827.9 and 16425.7 and 15384.6 | GFP ([1]; Log([ASHL]) -10.5): 1424 and 1254 and 1414 | Mean normalised fluorescence ([1]; Log([ASHL]) -10.5): 15128.3 | Normalised fluorescence ([1]; Log([ASHL]) -10.5): 14176.3 and 15945.9 and 15262.6 | GFP ([1]; Log([ASHL]) -11): 1414 and 1258 and 1391 | Mean normalised fluorescence ([1]; Log([ASHL]) -11): 15383.1 | Normalised fluorescence ([1]; Log([ASHL]) -11): 14419.4 and 15744.7 and 15985.4 | GFP ([1]; Log([ASHL]) -11.5): 1447 and 1104 and 1274 | Mean normalised fluorescence ([1]; Log([ASHL]) -11.5): 15262.1 | Normalised fluorescence ([1]; Log([ASHL]) -11.5): 15049.3 and 14629.6 and 16107.4 | gfp expression in presence of IV-HSL ([2]; BjaR knocked out): completely ablated gfp expression; also recorded: minimal gfp expression | GFP ([2]; Log([ASHL]) -6.5): 184 and 176 and 173 | Mean normalised fluorescence ([2]; Log([ASHL]) -6.5): 361.621 | Normalised fluorescence ([2]; Log([ASHL]) -6.5): 365.437 and 317.314 and 402.112 | GFP ([2]; Log([ASHL]) -7): 173 and 168 and 165 | Mean normalised fluorescence ([2]; Log([ASHL]) -7): 321.731 | Normalised fluorescence ([2]; Log([ASHL]) -7): 319.68 and 293.754 and 351.759 | GFP ([2]; Log([ASHL]) -7.5): 177 and 169 and 166 | Mean normalised fluorescence ([2]; Log([ASHL]) -7.5): 323.42 | Normalised fluorescence ([2]; Log([ASHL]) -7.5): 331.126 and 287.856 and 351.279 | GFP ([2]; Log([ASHL]) -8): 168 and 166 and 175 | Mean normalised fluorescence ([2]; Log([ASHL]) -8): 329.861 | Normalised fluorescence ([2]; Log([ASHL]) -8): 292.758 and 367.412 and 329.412 | GFP ([2]; Log([ASHL]) -8.5): 168 and 165 and 177 | Mean normalised fluorescence ([2]; Log([ASHL]) -8.5): 326.491 | Normalised fluorescence ([2]; Log([ASHL]) -8.5): 291.054 and 362.261 and 326.158 | GFP ([2]; Log([ASHL]) -9): 165 and 164 and 177 | Mean normalised fluorescence ([2]; Log([ASHL]) -9): 335.395 | Normalised fluorescence ([2]; Log([ASHL]) -9): 295.725 and 362.027 and 348.432 | GFP ([2]; Log([ASHL]) -9.5): 164 and 162 and 172 | Mean normalised fluorescence ([2]; Log([ASHL]) -9.5): 325.095 | Normalised fluorescence ([2]; Log([ASHL]) -9.5): 293.548 and 346.048 and 335.689 | GFP ([2]; Log([ASHL]) -10): 163 and 162 and 171 | Mean normalised fluorescence ([2]; Log([ASHL]) -10): 332.521 | Normalised fluorescence ([2]; Log([ASHL]) -10): 290.698 and 371.151 and 335.714 | GFP ([2]; Log([ASHL]) -10.5): 166 and 164 and 173 | Mean normalised fluorescence ([2]; Log([ASHL]) -10.5): 338.795 | Normalised fluorescence ([2]; Log([ASHL]) -10.5): 301.85 and 369.458 and 345.075 | GFP ([2]; Log([ASHL]) -11): 163 and 161 and 171 | Mean normalised fluorescence ([2]; Log([ASHL]) -11): 330.063 | Normalised fluorescence ([2]; Log([ASHL]) -11): 296.053 and 361.746 and 332.39 | GFP ([2]; Log([ASHL]) -11.5): 165 and 174 and 162 | Mean normalised fluorescence ([2]; Log([ASHL]) -11.5): 344.578 | Normalised fluorescence ([2]; Log([ASHL]) -11.5): 307.076 and 352.984 and 373.673
